Patent US10392385B2, “N-((1-phenyl-9H-pyrido[3,4-b]indol-3-yl)methyl)cinnamamides as potential anticancer agents and preparation thereof” (Council of Scientific & Industrial Research, priority 2016, dated 2019)

Tests used:
[1] = tested on: NIH3T3 (mouse embryonic fibroblast cell line); assay: MTT cytotoxicity assay, NIH3T3; assay type: cell-based; conditions: 48 h of drug treatment (footnote), average of three experiments
Excerpt: (§1) The N-((1-phenyl-9H-pyrido[3,4-b]indol-3-yl)methyl)cinnamamides (1a-h, 2a-h and 3a-h) have been tested against five human cancer cell lines such as A549 (lung cancer), MCF-7 (breast cancer), B16 (melanoma), HeLa (cervical cancer) and NIH3T3 (mouse embryonic fibroblast cancer). All the cancer cell lines (HeLa, A549, MCF-7 and B16) were procured from National Centre for Cell Sciences (NCCS, Pune, India) and NIH 3T3 cell line was obtained from American Type Culture Collection (Rockville, Md., USA). Stock cells were cultured in DMEM supplemented with 10% Fetal Bovine Serum (FBS), in an humidified atmosphere of 5% CO2 at 37° C. until they are 80% confluent. To study the cytotoxicity of the compounds, after 80% confluence, cells were trypsinized with 0.1% trypsin-EDTA and harvested by centrifugation at 500×g. Serial dilutions of cells were made from 1×10^6 to 1×10^3 cells per mL The cells were seeded in triplicate in a 96 well plate. […]. […] The cell viability was determined by measuring the ability of cells to transform MTT to a purple coloured formazan dye. The absorbance of samples at 570 nm was measured using a UV-Visible spectrophotometer. Percentage of viable cells was calculated by using the formula given below.
(§2) Where the OD570 (sample) corresponds to absorbance obtained from the wells treated with compound and OD570 (control) represents the absorbance from the wells in which no compound was added. For these compounds results are expressed as half maximal inhibitory concentration (IC50) values and the anticancer activity data of 1a-h, 2a-h and 3a-h are shown in Table 2.

MCF-7 (breast cancer) = assay: MTT cytotoxicity assay, MCF-7; assay type: cell-based; conditions: Homo sapiens, MCF7, average of three experiments
Excerpt: as §1, §2

B16 (melanoma) = assay: MTT cytotoxicity assay, B16; assay type: cell-based; conditions: 48 h of drug treatment (footnote), average of three experiments
Excerpt: as §1, §2

HeLa (cervical cancer) = assay: MTT cytotoxicity assay, HeLa; assay type: cell-based; conditions: Homo sapiens, of drug treatment (footnote), average of three experiments
Excerpt: as §1, §2

A549 (lung cancer) = assay: MTT cytotoxicity assay, A549; assay type: cell-based; conditions: Homo sapiens, 48 h of drug treatment (footnote), average of three experiments
Excerpt: as §1
Where the OD570 (sample) corresponds to absorbance obtained from the wells treated with compound and OD570 (control) represents the absorbance from the wells in which no compound was added.

COc1ccc(-c2nc(CNC(=O)/C=C/c3cc(OC)c(OC)c(OC)c3)cc3c2[nH]c2ccccc23)cc1 [Compound 3a, (E)-N-((1-(4-methoxyphenyl)-9H-pyrido[3,4-b]indol-3-yl)methyl)-3-(3,4,5-trimethoxyphenyl)acrylamide]
IC50 [1]: 39.3 ± 1.7 nM | IC50 (MCF-7 (breast cancer)): 13.4 nM | IC50 (B16 (melanoma)): 17.4 ± 0.4 nM | melting point: 148 to 150 °C | IC50 (HeLa (cervical cancer)): 22.89 ± 0.2 nM | IC50 (A549 (lung cancer)): 19.7 ± 0.6 nM

COc1cc(/C=C/C(=O)NCc2cc3c([nH]c4ccccc43)c(-c3cc(OC)c(OC)c(OC)c3)n2)cc(OC)c1OC [Compound 2a, (E)-3-(3,4,5-trimethoxyphenyl)-N-((1-(3,4,5-trimethoxyphenyl)-9H-pyrido[3,4-b]indol-3-yl)methyl)acrylamide]
IC50 [1]: 38.9 ± 2.5 nM | IC50 (MCF-7 (breast cancer)): 16.5 ± 1.1 nM | IC50 (B16 (melanoma)): 17.2 ± 0.4 nM | IC50 (HeLa (cervical cancer)): 23.5 ± 0.3 nM | IC50 (A549 (lung cancer)): 21.3 ± 0.9 nM

COc1cc(/C=C/C(=O)NCc2cc3c([nH]c4ccccc43)c(-c3cccc(F)c3)n2)cc(OC)c1OC [Compound 1a, (E)-N-((1-(3-fluorophenyl)-9H-pyrido[3,4-b]indol-3-yl)methyl)-3-(3,4,5-trimethoxyphenyl)acrylamide]
IC50 [1]: 36 ± 1.3 nM | IC50 (MCF-7 (breast cancer)): 16.2 ± 1.5 nM | IC50 (B16 (melanoma)): 19.8 ± 0.6 nM | melting point: 148 to 150 °C | IC50 (HeLa (cervical cancer)): 23 ± 0.7 nM | IC50 (A549 (lung cancer)): 17.9 ± 0.6 nM

COc1ccc(-c2nc(CNC(=O)/C=C/c3cc(OC)ccc3OC)cc3c2[nH]c2ccccc23)cc1 [Compound 3e, (E)-3-(2,5-dimethoxyphenyl)-N-((1-(4-methoxyphenyl)-9H-pyrido[3,4-b]indol-3-yl)methyl)acrylamide]
IC50 [1]: 34.4 ± 1.6 nM | IC50 (MCF-7 (breast cancer)): 16.5 ± 0.7 nM | IC50 (B16 (melanoma)): 22.1 ± 0.4 nM | melting point: 130 to 135 °C | IC50 (HeLa (cervical cancer)): 25.4 ± 0.3 nM | IC50 (A549 (lung cancer)): 18.9 ± 1.2 nM

COc1ccc(-c2nc(CNC(=O)/C=C/c3cc(F)cc(F)c3)cc3c2[nH]c2ccccc23)cc1 [Compound 3d, (E)-3-(3,5-difluorophenyl)-N-((1-(4-methoxyphenyl)-9H-pyrido[3,4-b]indol-3-yl)methyl)acrylamide]
IC50 [1]: 37.5 ± 1.3 nM | IC50 (MCF-7 (breast cancer)): 17.2 ± 1.2 nM | IC50 (B16 (melanoma)): 23.87 ± 0.2 nM | melting point: 230 to 232 °C | IC50 (HeLa (cervical cancer)): 24.6 ± 0.4 nM | IC50 (A549 (lung cancer)): 20 ± 1.1 nM

COc1ccc(-c2nc(CNC(=O)/C=C/c3ccc(Cl)cc3)cc3c2[nH]c2ccccc23)cc1 [Compound 3f, (E)-3-(4-chlorophenyl)-N-((1-(4-methoxyphenyl)-9H-pyrido[3,4-b]indol-3-yl)methyl)acrylamide]
IC50 [1]: 38.3 ± 1.3 nM | IC50 (MCF-7 (breast cancer)): 14.1 nM | IC50 (B16 (melanoma)): 16.6 ± 0.5 nM | IC50 (HeLa (cervical cancer)): 21.6 ± 0.6 nM | IC50 (A549 (lung cancer)): 18.9 ± 1.1 nM

COc1cc(-c2nc(CNC(=O)/C=C/c3ccc(Cl)cc3)cc3c2[nH]c2ccccc23)cc(OC)c1OC [Compound 2f, (E)-3-(4-chlorophenyl)-N-((1-(3,4,5-trimethoxyphenyl)-9H-pyrido[3,4-b]indol-3-yl)methyl)acrylamide]
IC50 [1]: 35.6 ± 2.1 nM | IC50 (MCF-7 (breast cancer)): 17.5 ± 0.9 nM | IC50 (B16 (melanoma)): 18.7 ± 1.1 nM | melting point: 148 to 150 °C | IC50 (HeLa (cervical cancer)): 26.8 ± 0.4 nM | IC50 (A549 (lung cancer)): 18.9 ± 1.7 nM

COc1cc(-c2nc(CNC(=O)/C=C/c3cc(F)cc(F)c3)cc3c2[nH]c2ccccc23)cc(OC)c1OC [Compound 2d, (E)-3-(3,5-difluorophenyl)-N-((1-(3,4,5-trimethoxyphenyl)-9H-pyrido[3,4-b]indol-3-yl)methyl)acrylamide]
IC50 [1]: 36.3 ± 1.7 nM | IC50 (MCF-7 (breast cancer)): 19.6 ± 1.1 nM | IC50 (B16 (melanoma)): 24.1 ± 0.7 nM | melting point: 228 to 230 °C | IC50 (HeLa (cervical cancer)): 23.8 ± 0.3 nM | IC50 (A549 (lung cancer)): 21.6 ± 1.2 nM

O=C(/C=C/c1ccc(Cl)cc1)NCc1cc2c([nH]c3ccccc32)c(-c2cccc(F)c2)n1 [Compound 1f, (E)-3-(4-chlorophenyl)-N-((1-(3-fluorophenyl)-9H-pyrido[3,4-b]indol-3-yl)methyl)acrylamide]
IC50 [1]: 43.6 ± 1.1 nM | IC50 (MCF-7 (breast cancer)): 18.3 ± 0.8 nM | IC50 (B16 (melanoma)): 18.2 ± 1.3 nM | melting point: 248 to 250 °C | IC50 (HeLa (cervical cancer)): 19.2 ± 0.6 nM | IC50 (A549 (lung cancer)): 19.6 ± 1.6 nM

O=C(/C=C/c1cc(F)cc(F)c1)NCc1cc2c([nH]c3ccccc32)c(-c2cccc(F)c2)n1 [Compound 1d, (E)-3-(3,5-difluorophenyl)-N-((1-(3-fluorophenyl)-9H-pyrido[3,4-b]indol-3-yl)methyl)acrylamide]
IC50 [1]: 36 ± 2.3 nM | IC50 (MCF-7 (breast cancer)): 16.5 ± 0.6 nM | IC50 (B16 (melanoma)): 18.2 ± 0.3 nM | melting point: 215 to 220 °C | IC50 (HeLa (cervical cancer)): 23.6 ± 0.5 nM | IC50 (A549 (lung cancer)): 21 ± 1.2 nM

COc1ccc(-c2nc(CNC(=O)/C=C/c3ccc(Cl)c(Cl)c3)cc3c2[nH]c2ccccc23)cc1 [Compound 3b, (E)-3-(3,4-dichlorophenyl)-N-((1-(4-methoxyphenyl)-9H-pyrido[3,4-b]indol-3-yl)methyl)acrylamide]
IC50 [1]: 37.5 ± 1.4 nM | IC50 (MCF-7 (breast cancer)): 16.4 ± 0.5 nM | IC50 (B16 (melanoma)): 23 ± 0.5 nM | melting point: 188 to 190 °C | IC50 (HeLa (cervical cancer)): 21.6 ± 0.4 nM | IC50 (A549 (lung cancer)): 18.4 ± 0.7 nM

COc1ccc(-c2nc(CNC(=O)/C=C/c3cccc(O)c3)cc3c2[nH]c2ccccc23)cc1 [Compound 3h, (E)-3-(3-hydroxyphenyl)-N-((1-(4-methoxyphenyl)-9H-pyrido[3,4-b]indol-3-yl)methyl)acrylamide]
IC50 [1]: 37.2 ± 1.1 nM | IC50 (MCF-7 (breast cancer)): 13.8 nM | IC50 (B16 (melanoma)): 16.3 ± 0.3 nM | IC50 (HeLa (cervical cancer)): 22.3 ± 0.3 nM | IC50 (A549 (lung cancer)): 18.9 ± 1.4 nM

COc1ccc(-c2nc(CNC(=O)/C=C/c3ccc(O)c(OC)c3)cc3c2[nH]c2ccccc23)cc1 [Compound 3g, (E)-3-(4-hydroxy-3-methoxyphenyl)-N-((1-(4-methoxyphenyl)-9H-pyrido[3,4-b]indol-3-yl)methyl)acrylamide]
IC50 [1]: 39.9 ± 1.6 nM | IC50 (MCF-7 (breast cancer)): 17.2 ± 0.5 nM | IC50 (B16 (melanoma)): 19.8 ± 0.5 nM | melting point: 215 to 220 °C | IC50 (HeLa (cervical cancer)): 24.87 ± 0.2 nM | IC50 (A549 (lung cancer)): 21.2 ± 1.5 nM

COc1ccc(OC)c(/C=C/C(=O)NCc2cc3c([nH]c4ccccc43)c(-c3cc(OC)c(OC)c(OC)c3)n2)c1 [Compound 2e, (E)-3-(2,5-dimethoxyphenyl)-N-((1-(3,4,5-trimethoxyphenyl)-9H-pyrido[3,4-b]indol-3-yl)methyl)acrylamide]
IC50 [1]: 39 ± 1.9 nM | IC50 (MCF-7 (breast cancer)): 17.2 ± 0.6 nM | IC50 (B16 (melanoma)): 19.2 ± 1.4 nM | melting point: 148 to 150 °C | IC50 (HeLa (cervical cancer)): 25.09 ± 0.2 nM | IC50 (A549 (lung cancer)): 18.8 ± 1.4 nM

COc1cc(-c2nc(CNC(=O)/C=C/c3ccc(Cl)c(Cl)c3)cc3c2[nH]c2ccccc23)cc(OC)c1OC [Compound 2b, (E)-3-(3,4-dichlorophenyl)-N-((1-(3,4,5-trimethoxyphenyl)-9H-pyrido[3,4-b]indol-3-yl)methyl)acrylamide]
IC50 [1]: 39.2 ± 1.9 nM | IC50 (MCF-7 (breast cancer)): 17.5 ± 1.4 nM | IC50 (B16 (melanoma)): 16.9 ± 0.7 nM | IC50 (HeLa (cervical cancer)): 25.87 ± 0.2 nM | IC50 (A549 (lung cancer)): 20.4 ± 0.7 nM

COc1cc(-c2nc(CNC(=O)/C=C/c3cccc(O)c3)cc3c2[nH]c2ccccc23)cc(OC)c1OC [Compound 2h, (E)-3-(3-hydroxyphenyl)-N-((1-(3,4,5-trimethoxyphenyl)-9H-pyrido[3,4-b]indol-3-yl)methyl)acrylamide]
IC50 [1]: 38.2 ± 1.5 nM | IC50 (MCF-7 (breast cancer)): 16.8 ± 0.5 nM | IC50 (B16 (melanoma)): 21.8 ± 0.8 nM | melting point: 175 to 178 °C | IC50 (HeLa (cervical cancer)): 23.65 ± 0.1 nM | IC50 (A549 (lung cancer)): 19.5 ± 1.5 nM

COc1ccc(-c2nc(CNC(=O)/C=C/c3ccc(F)cc3)cc3c2[nH]c2ccccc23)cc1 [Compound 3c, (E)-3-(4-fluorophenyl)-N-((1-(4-methoxyphenyl)-9H-pyrido[3,4-b]indol-3-yl)methyl)acrylamide]
IC50 [1]: 36.9 ± 1.6 nM | IC50 (MCF-7 (breast cancer)): 18.2 ± 0.7 nM | IC50 (B16 (melanoma)): 21.9 ± 0.3 nM | melting point: 145 to 148 °C | IC50 (HeLa (cervical cancer)): 22.8 ± 0.6 nM | IC50 (A549 (lung cancer)): 20.2 ± 1.3 nM
